Values quoted from earlier work in patent publication US5348950A, “Platinum(II) complex and antitumor agent” (Toray Industries, Inc., priority 1991, dated 1994).

Conditions: background statement

Compound: N.N.O=C([O-])C1(C(=O)[O-])CCC1.[Pt+2] [CBDCA, cisdiammine(1,1-cyclobutanedicarboxylato)platinum(II)]
- anti-tumor activity: low anti-tumor activity

Compound: N.N.[Cl][Pt][Cl] [CDDP, cisdiamminedichloroplatinum(II)]
- side effects: strong side effects
